Values of other authors, collected in PMC7004556 (Cancer Science, 2020).

Key:
[1] = test system: patients; conditions: phase I study, only at the highest dose investigated (12 mg); cited from earlier work
[2] = test system: FGFR pathway; conditions: cited from earlier work
[3] = test system: advanced solid tumors; conditions: Japanese patients with advanced solid tumors, duration ≥4 weeks; cited from earlier work
[4] = test system: advanced gastric cancer; conditions: advanced gastric cancer with FGFR2 polysomy or gene amplification; cited from earlier work

Q: With `COc1cc(OC)cc(N(CCNC(C)C)c2ccc3ncc(-c4cnn(C)c4)nc3c2)c1` [JNJ‐42756493] as the compound, how does the DLT observed [1] read?
A: detachment of retinal pigment epithelium <grade 3 was the only DLT observed

Q: What about the “Phosphate and 1,25‐(OH)2‐vitamin D” value ([2]; studies in solid tumors) of the same compound?
A: increased

Q: What does the source list for AZD4547?
A: Best response [3]: stable disease; Effect on progression‐free survival compared with paclitaxel [4]: no significant effect; Serum phosphate [2]: increase
